# According to patent publication US12036212B2, “Enhancement of tumor response to chemotherapy by activation of the asmase/ceramide pathway through timed administration of a short-acting anti-angiogenic agent” (Memorial Sloan-Kettering Cancer Center, priority 2014, dated 2024):
# Assays:
# [1] = tested on: advanced soft tissue sarcoma; assay: Phase II trial of gemcitabine and docetaxel with bevacizumab, volumetric tumor response; type: in vivo, human
# Description: Patients with metastatic or locally-recurrent leiomyosarcoma, pleomorphic undifferentiated sarcoma, pleomorphic liposarcoma, rhabdomyosarcoma or angiosarcoma, were treated on a phase II trial of gemcitabine, docetaxel and bevacizumab. Initially the trial was a double-blind, placebo-controlled, randomized trial of gemcitabine and docetaxel with or without bevacizumab, which was modified to a single-arm, open-label, non-randomized study of gemcitabine, docetaxel and bevacizumab. The protocol was approved by the Institutional Review Board of Memorial-Sloan Kettering Cancer Center, and all patients provided written informed consent (Clinicaltrials.gov identifier NCT00887809).
# Initially, gemcitabine was administered immediately following bevacizumab.
# Volumetric measurement of tumors was performed on an exploratory basis as the original study was not designed or powered to specifically investigate the clinical application of timed anti-angiogenic therapy as a method of tumor chemosensitization. In light of the results from our animal studies, which were made part way through the clinical study period, volumetric measurements were proposed to more ideally facilitate comparison with our pre-clinical data. Furthermore, they likely provide a more meaningful assessment of tumor response than the RECIST based evaluation for soft tissue sarcoma. […] Baseline CT or MRI was used to identify a dominant target lesion for measurement. Follow-up scans were evaluated for best response. Tumor contours were defined manually and summed across all axial slices to calculate a total volume measurement. Tumor response was defined as at least a 30% reduction in tumor volume. Both a two-tailed Fisher's Exact Test and the Mann-Whitney Rank-Sum test were employed to evaluate significance in patient volumetric response rates at the first interval treatment scan (week 6) and at time of maximum treatment response.
# Patients enrolled in the trial had metastatic or recurrent leiomyosarcoma, pleomorphic undifferentiated sarcoma, pleomorphic liposarcoma, rhabdomyosarcoma or angiosarcoma (FIG. 7A).
# A total of 38 patients were treated. A subset of patients received placebo instead of bevacizumab. […] Baseline CT scan or MRI was used to identify a dominant target lesion for volumetric measurement, followed by volumetric assessment on initial post-treatment follow-up scan ([…]) and over the treatment course (representative CT time course of abdominal metastasis is shown in FIG. 7B showing regression of metastatic tumor).
# [2] = human, in vivo; cited from earlier work
# ASMase = ASMase activity radioenzymatic assay in BAEC; type: cell-based, bovine
# Description: BAEC were established from the intima of bovine aorta as described^1. Stock cultures were grown in 100-mm dishes in Dulbecco's modified Eagle's medium (DMEM) supplemented with glucose (1 g/liter), 5% heat-inactivated calf serum (CS), penicillin (50 units/ml), and streptomycin (50 μg/ml). Purified human recombinant bFGF (1 ng/ml; R&D Systems, Inc., Minneapolis, MN) was added every other day during the exponential growth phase. […] These plateau phase cells were either used for experiments, or further sub-cultured (up to a maximum of 10 times) at a split ratio of 1:8. For sub-culturing, monolayers were dissociated with STV (0.05% trypsin and 0.02% EDTA in PBS) for 2-3 min at 22° C., washed twice in 5% CS-DMEM, and resuspended in DMEM with supplements as above. These mild conditions of trypsinization were sufficient to detach cells but not injure, stimulate, or affect cell function in a detectable way. BAEC were maintained at 37° C. in 10% CO2 humidified incubators.
# ASMase activity was quantified by radioenzymatic assay using [^14C-methylcholine]sphingomyelin (Amersham) as substrate as described (Schissel et al. J Biol Chem, 271, 18431-18436, 1996). Cell lysates were incubated with [^14C-methylcholine]-sphingomyelin substrate (0.026 mCi/9.5 nmol) in 250 mM sodium acetate, pH 5.0 supplemented with 0.1% Triton X-100 and 1 mM EDTA or 0.1 mM ZnCl. Reactions were terminated after 1 h with CHCl3:MeOH:1N HCl (100:100:1, v/v/v), and [^14C-methylcholine]phosphocholine product in the aqueous layer of the Folch extract was quantified using a Beckman Packard 2200 CA Tricarb scintillation counter. For detection of ASMase activity in patients, 10 μl of serum was used.
# To test the effect of chemotherapy on ASMase signaling and ceramide production, BAEC were treated with paclitaxel (100 nM) and ASMase activity was determined by radioenzymatic assay (Rotolo et al, infra) using [^14C-methylcholine] sphingomyelin (Amersham) as substrate (FIG. 1A). Induction of ASMase activity was observed within 5 minutes after treatment, and the activation continued for 30 minutes. Ceramide generation was monitored using the diacylglycerol kinase assay (Stancevic et al. PLoS ONE 8, e69025, 2013). […] In further support of this, pre-incubation of BAEC with nystatin prior to treatment with chemotherapy inhibits chemotherapy-induced apoptosis (FIG. 3).
# To determine the generality of the results observed, experiments were carried out using an additional endothelial cell line, human coronary artery endothelial cells (HCAEC); experiments were also performed using a different chemotherapeutic agent. […] Next, HCAEC were treated with paclitaxel (100 nM) (data not shown) and etoposide (50 μM) (FIG. 1F), and ceramide generation was evaluated.
# To further establish the generality of ASMase activation by various chemotherapeutic agents, BAEC and HCAEC were treated with increasing doses of cisplatin (0.1-50 μM) (data not shown). […] The ASMase/ceramide pathway was activated by chemotherapeutic agents that belong to different classes of chemotherapeutic agents, such as: taxanes, topoisomerase inhibitors, and nucleoside analog metabolic inhibitors. Since such chemotherapy agents are characterized by distinct mechanisms of action in tumor cells, it is surprising that a group of such distinct agents converges on a common molecular (ASMase/ceramide) axis in endothelium. The present confirmation that distinct chemotherapeutic agents activate the ASMase/ceramide pathway permits the present inventors to take into account the results of experiments using single dose radiotherapy, which has been reported to activate the same pathway (Rao, S. S. et al., Axitinib sensitization of high Single Dose Radiotherapy. Radiotherapy and Oncology: Journal of the European Society for Therapeutic Radiology and Oncology 111, 88-93, doi:10.1016/j.radonc.2014.02.010 (2014)).
# Gemcitabine was able to activate ASMase in cultured endothelial cells. […]
# [3] = tested on: MCA/129 fibrosarcoma tumors; assay: IVIM MRI of vascular perfusion in MCA/129 fibrosarcoma tumors; type: in vivo, mouse; conditions: gemcitabine 240 mg/kg i.p.
# Excerpt: IVIM DW-MRI was first described by Le Bihan et al. (MR imaging of intravoxel incoherent motions: application to diffusion and perfusion in neurologic disorders. Radiology 1986; 161: 401-407). The novelty of our approach lies in repeatedly acquiring IVIM data over time (e.g. “dynamic” IVIM) to monitor the acute effects of radiation (or chemotherapy), a strategy which has not been previously reported. No intravenous contrast administration is required, and IVIM parameters can be measured many times, allowing us to define kinetics of vascular dysfunction after radiation or chemotherapy. Other alternatives, such as DCE-MRI or ^15O-PET, would not serve our purpose as well: although they may be highly reflective of tissue vascularity they cannot be re-injected into a patient to serially monitor changes in vascularity over time. IVIM parameters including perfusion fraction (f), pseudo-diffusion coefficient (D*) and diffusion coefficient (D) were calculated for each lesion, using a biexponential signal decay model and incorporating a correction to account for differences in the T1 and T2 relaxation times of tissue and blood, respectively.
# Briefly, MCA/129 fibrosarcoma tumors were implanted in the rear mouse hip, and subjected to intravoxel incoherent motion (IVIM) MRI when tumors reached a size of 150-300 mm^3. […] Data (mean±SEM) are collated from 6 animals per group.
# MCA/129 fibrosarcomas = assay: Endothelial apoptosis in vivo (TUNEL/MECA-32) in MCA/129 fibrosarcomas; design: species or system mice; conditions: gemcitabine 240 mg/kg
# Description: Human HCT-116 colon cancer cells and MCA/129 murine sarcoma cells were maintained in DMEM with 10% fetal bovine serum, with 100 u/ml penicillin and 100 μg/ml streptomycin. Cells were grown as monolayers in 75 cm^2 culture flasks at 37° C. in 10% CO2 humidified incubators. Cells were trypsinized, washed in PBS and diluted in Matrigel/PBS solution (40:60 v/v) for HCT-116 xenografts or in PBS for MCA/129 syngeneic tumor grafts. Cells (3×10^6 for HCT-116 or 1×10^6 for MCA129) were injected subcutaneously into the flanks of mice (Garcia-Barros et al. Science 300, 1155-1159, 2003).
# To evaluate acute endothelial apoptosis, tumors were grown in mice and treated with drugs as above. After the first treatment, tumors were harvested at specified times, placed into formalin overnight and paraffin-embedded the next day. Paraffin-embedded sections (5 μm) were co-stained for apoptotic endothelium using TUNEL and the endothelial-specific monoclonal antibody MECA-32 (Developmental Studies Hybridoma Bank, developed under the auspices of the NICHD and maintained by The University of Iowa, IA).
# Similar results were observed using MCA/129 murine fibrosarcoma tumors implanted in Sv129/Bl6^asmase+/+ mice. […] After 4 hours of treatment, tumors were harvested and endothelial cell apoptosis quantified.
Compound,"Patients with >30% tumor reduction, initial follow-up scan ([1]; after two 3-week cycles, bevacizumab-gemcitabine 1-hour interval, 14 patients)","Patients with significant tumor response (≥30% reduction in tumor volume), initial follow-up scan ([1]; after two 3-week cycles, immediate consecutive bevacizumab-gemcitabine, 16 patients)","Patients with significant tumor response, best response ([1]; bevacizumab 15 mg/kg 1 hour prior to gemcitabine, docetaxel day 8, 14 patients)","Patients with significant tumor response (>30% reduction in tumor volume), best response ([1]; bevacizumab 15 mg/kg immediately before gemcitabine, docetaxel day 8, 16 patients)",Half-life (t1/2) [2],"ASMase activation (ASMase; etoposide 50 μM, cisplatin 0.1-50 μM, gemcitabine 100 nM time-course)","Dose dependence of ASMase activation (ASMase; increasing doses of gemcitabine, 5 minutes)",Time of peak vascularity and diffusion reduction after treatment [3],Diffusion (D*) ([3]; over 1 hour),Vascularity (Fp) ([3]; over 1 hour),Endothelial cell apoptosis (MCA/129 fibrosarcomas; Sv129/BL6 asmase+/+),Tumor cell apoptosis (MCA/129 fibrosarcomas)
"bevacizumab: monoclonal antibody that targets circulating VEGF A, long-acting AAA",64%,25%,93%,38%,21 days,–,–,–,–,–,–,–
Nc1ccn([C@@H]2O[C@H](CO)[C@@H](O)C2(F)F)c(=O)n1 [gemcitabine],–,–,–,–,–,triggered rapid cellular activation of ASMase,dose-dependent manner,15 to 30 min,reduced in a reversible manner,reduced in a reversible manner,induced time-dependent endothelial cell apoptosis,did not cause tumor cell apoptosis
